This assay has as its target T1, Aβ42 (Homo sapiens, UniProt P05067).
T1 construct: […]; made in house; host or cells: E. coli BL21 Gold (DE3)
The assay can be described thus: ThT kinetic assay of Aβ42 fibril formation (unseeded). Format: biochemical. The note with it: 2 μM Aβ42; 5× drug:protein concentration. The text has this:
The recombinant Aβ(M1-42) peptide ([…]-SNKGAIIGLMVGGVVIA [SEQ ID NO: 1]), here called Aβ42, was expressed in the E. coli BL21 Gold (DE3) strain (Stratagene, CA, U.S.A.) and purified as described previously with slight modifications. Briefly, the purification procedure involved sonication of E. coli cells, dissolution of inclusion bodies in 8 M urea, and ion exchange in batch mode on diethylaminoethyl cellulose resin and lyophylization. The lyophilized fractions were further purified using Superdex 75 HR 26/60 column (GE Healthcare, Buckinghamshire, U.K.) and eluates were analyzed using SDS-PAGE for the presence of the desired protein product. The fractions containing the recombinant protein were combined, frozen using liquid nitrogen, and lyophilized again.
Except for Netoglitazone, which was custom synthesised by GVK BIO, all small molecules were purchased with a purity greater than 99%. Small molecules were first solubilized in 100% DMSO to a concentration of 5 mM, and then diluted in the peptide solution to reach a final DMSO concentration of maximum 1-3%. We verified that the addition of DMSO in the reaction mixture has no effect on Aβ42 aggregation.
Solutions of monomeric peptides were prepared by dissolving the lyophilized Aβ42 peptide in 6 M GuHCl. Monomeric forms were purified from potential oligomeric species and salt using a Superdex 75 10/300 GL column (GE Healthcare) at a flowrate of 0.5 mL/min, and were eluted in 20 mM sodium phosphate buffer, pH 8 supplemented with 200 μM EDTA and 0.02% NaN3. The centre of the peak was collected, and the peptide concentration was determined from the absorbance of the integrated peak area using ε280=1490 L mol^−1 cm^−1. The obtained monomer was diluted with buffer to the desired concentration and supplemented with 20 μM Thioflavin T (ThT) from a 1 mM stock. All samples were prepared in low binding Eppendorf tubes on ice using careful pipetting to avoid introduction of air bubbles. Each sample was then pipetted into multiple wells of a 96-well half-area, low-binding, clear bottom and PEG coating plate (Corning 3881), 80 μL per well. Aβ42 kinetics have been performed in the absence or the presence of Netoglitazone, Mitoglitazone, Rosiglotazone, Rivoglitazone, Pioglitazone, Ciglitazone, Englitazone, Darglitazone, Troglitazone and B alaglitazone.

T1 sequence (P05067 671-713): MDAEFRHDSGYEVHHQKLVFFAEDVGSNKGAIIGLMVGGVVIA

As to `Cn1c(COc2ccc(CC3SC(=O)NC3=O)cc2)nc2ccccc2c1=O` (stereo not shown) [Balaglitazone], the “delay of Aβ42 aggregation” value is “little to no delay”.

`Cc1oc(-c2ccccc2)nc1CCC(=O)c1ccc(CC2SC(=O)NC2=O)cc1` (stereo not shown) [Darglitazone]: the “delay of Aβ42 aggregation” value was “observed to delay”.

With `CCc1ccc(C(=O)COc2ccc(CC3SC(=O)NC3=O)cc2)nc1` (stereo not shown) [Mitoglitazone], the “delay of Aβ42 aggregation” value is “little to no delay”.

For `COc1ccc2nc(COc3ccc(CC4SC(=O)NC4=O)cc3)n(C)c2c1` (stereo not shown) [Rivoglitazone], the “delay of Aβ42 aggregation” value was “little to no delay”.

The values are drawn from patent publication US20210145802A1, “THERAPY FOR OPHTHALMOLOGICAL CONDITIONS” (WREN THERAPEUTICS LIMITED, priority 2018, published 2021).
